Experimental data reported in patent publication US20250375544A1, “DUAL MODE RADIOTRACER AND -THERAPEUTICS” (TECHNISCHE UNIVERSITÄT MÜNCHEN, priority 2021, published 2025).

What was measured:
[1] = ^177Lu-labeled compound, n = 6
[2] = tested on: LNCaP tumor xenograft-bearing CB17-SCID mice; assay: Biodistribution in LNCaP tumor xenograft-bearing CB17-SCID mice
PSMA = PSMA (Homo sapiens, UniProt Q04609); assay: Affinity determinations (IC50), competitive binding assay with ([^125I]I-BA)KuE on LNCaP cells; details: ([^125I]I-BA)KuE 0.2 nM, HBSS (1% BSA), 4° C., 1 h, cold ^natGa/^natLu complex
[3] = Wangler et al., Bioconjug Chem. 2010; cited from earlier work

Chain of PSMA (Q04609 whole entry): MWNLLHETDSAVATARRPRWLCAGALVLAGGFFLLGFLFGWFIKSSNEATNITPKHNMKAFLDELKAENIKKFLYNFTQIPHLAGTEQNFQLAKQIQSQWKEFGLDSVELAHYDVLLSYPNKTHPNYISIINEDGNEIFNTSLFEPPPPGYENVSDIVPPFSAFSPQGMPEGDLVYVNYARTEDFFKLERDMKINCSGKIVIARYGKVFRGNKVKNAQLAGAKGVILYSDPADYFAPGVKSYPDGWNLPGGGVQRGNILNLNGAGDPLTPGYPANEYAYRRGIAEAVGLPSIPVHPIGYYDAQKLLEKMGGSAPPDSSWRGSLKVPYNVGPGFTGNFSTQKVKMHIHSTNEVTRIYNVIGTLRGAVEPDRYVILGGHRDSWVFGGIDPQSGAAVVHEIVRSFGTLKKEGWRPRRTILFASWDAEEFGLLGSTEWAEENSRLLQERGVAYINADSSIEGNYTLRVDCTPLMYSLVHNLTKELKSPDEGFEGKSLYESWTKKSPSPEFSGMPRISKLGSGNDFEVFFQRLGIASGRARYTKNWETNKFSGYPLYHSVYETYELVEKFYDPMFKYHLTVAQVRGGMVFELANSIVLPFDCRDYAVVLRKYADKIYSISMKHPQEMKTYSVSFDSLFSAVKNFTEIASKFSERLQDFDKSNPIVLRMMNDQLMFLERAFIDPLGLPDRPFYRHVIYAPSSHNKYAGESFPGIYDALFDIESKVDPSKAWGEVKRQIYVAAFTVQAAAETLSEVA

## CSCC[C@H](NC(=O)CC[C@H](NC(=O)N[C@@H](CCC(=O)N[C@H](CCCNC(=O)CCC(=O)NCCCC[C@@H](NC(=O)[C@@H](CNC(=O)c1ccc([Si](F)(C(C)(C)C)C(C)(C)C)cc1)NC(=O)CN1CCN(CC(=O)O)CCN(CC(=O)O)CCN(CC(=O)O)CC1)C(=O)O)C(=O)O)C(=O)O)C(=O)O)C(=O)O [Compound 5, Proinhibitor I]
[1]
  log D: −2.89±0.18

## CC(C)(C)[Si](F)(c1ccc(C(=O)NC[C@@H](NC(=O)CN2CCN(CC(=O)[O-])CCN(CC(=O)[O-])CCN(CC(=O)[O-])CC2)C(=O)N[C@H](CCCCNC(=O)CCC(=O)NCCC[C@@H](NC(=O)CC[C@H](NC(=O)O[C@@H](CCC(=O)O)C(=O)O)C(=O)O)C(=O)O)C(=O)O)cc1)C(C)(C)C.[177Lu+3] [[^177Lu]Lu-3, [^177Lu]Lu-Carbamate I]
[2]; 1 h p.i.
  Biodistribution Adrenals: 1.46 ± 0.70 % ID/g
  Biodistribution Blood: 0.97 ± 0.18 % ID/g
  Biodistribution Bone: 0.18 ± 0.02 % ID/g
  Biodistribution Heart: 0.36 ± 0.04 % ID/g
  Biodistribution Intestine: 0.36 ± 0.17 % ID/g
  Biodistribution Kidneys: 61.8±25.9 % ID/g
  Biodistribution Liver: 0.87 ± 0.28 % ID/g
  Biodistribution Lung: 2.88 ± 2.96 % ID/g
  Biodistribution Muscle: 0.13 ± 0.04 % ID/g
  Biodistribution Pancreas: 0.25 ± 0.06 % ID/g
  Biodistribution Parotid gland: 0.62 ± 0.20 % ID/g
  Biodistribution Spleen: 2.51 ± 0.95 % ID/g
  Biodistribution Stomach: 0.30 ± 0.09 % ID/g
  Biodistribution Submandibular gland: 0.37 ± 0.08 % ID/g
  Biodistribution Tumor: 5.31±0.94 % ID/g
  Ratio Tumor-to-blood: 5.57 ± 1.18
  Ratio Tumor-to-kidney: 0.09 ± 0.03
  Ratio Tumor-to-liver: 6.61 ± 2.19
  Ratio Tumor-to-muscle: 44.1 ± 9.0
  Ratio Tumor-to-parotid gland: 9.09 ± 3.13
  Ratio Tumor-to-submandibular gland: 14.7 ± 3.5
[2]; 1 h p.i. vs 24 h p.i.
  tumor-to-submandibularis and -parotidea ratios at 1 h p.i. compared to respective values at 24 h p.i.: two-fold lower
[2]; 24 h p.i.
  Biodistribution Adrenals: 0.04 ± 0.01 % ID/g
  Biodistribution Blood: 0.00 ± 0.00 % ID/g
  Biodistribution Bone: 0.02 ± 0.01 % ID/g
  Biodistribution Heart: 0.02 ± 0.01 % ID/g
  Biodistribution Intestine: 0.12 ± 0.06 % ID/g
  Biodistribution Kidneys: 0.31 ± 0.05 % ID/g
  Biodistribution Liver: 0.13 ± 0.05 % ID/g
  Biodistribution Lung: 0.03 ± 0.01 % ID/g
  Biodistribution Muscle: 0.01 ± 0.01 % ID/g
  Biodistribution Pancreas: 0.02 ± 0.01 % ID/g
  Biodistribution Parotid gland: 0.04 ± 0.02 % ID/g
  Biodistribution Spleen: 0.09 ± 0.01 % ID/g
  Biodistribution Stomach: 0.06 ± 0.04 % ID/g
  Biodistribution Submandibular gland: 0.03 ± 0.01 % ID/g
  Biodistribution Tumor: 1.20 ± 0.55 % ID/g
  Ratio Tumor-to-blood: 947 ± 652
  Ratio Tumor-to-kidney: 3.80 ± 1.36
  Ratio Tumor-to-liver: 8.94 ± 2.94
  Ratio Tumor-to-muscle: 127 ± 92
  Ratio Tumor-to-parotid gland: 31.8 ± 9.3
  Ratio Tumor-to-submandibular gland: 34.5 ± 9.2
[1]
  log D: −3.40±0.45

## CSCC[C@H](NC(=O)CC[C@H](NC(=O)N[C@@H](CCC(=O)N[C@H](CCCNC(=O)CCC(=O)NCCCC[C@@H](NC(=O)[C@@H](CNC(=O)c1ccc([Si](F)(C(C)(C)C)C(C)(C)C)cc1)NC(=O)CN1CCN(CC(=O)[O-])CCN(CC(=O)[O-])CCN(CC(=O)[O-])CC1)C(=O)O)C(=O)O)C(=O)O)C(=O)O)C(=O)O.[177Lu+3] [[^177Lu]Lu-5, [^177Lu]Lu-Proinhibitor I]
[2]; 24 h p.i.
  Biodistribution Adrenals: 0.00 ± 0.00 % ID/g
  Biodistribution Blood: 0.00 ± 0.00 % ID/g
  Biodistribution Bone: 0.00 ± 0.00 % ID/g
  Biodistribution Heart: 0.01 ± 0.00 % ID/g
  Biodistribution Intestine: 0.55 ± 0.04 % ID/g
  Biodistribution Kidneys: 0.48 ± 0.02 % ID/g
  Biodistribution Liver: 0.05 ± 0.00 % ID/g
  Biodistribution Lung: 0.33 ± 0.30 % ID/g
  Biodistribution Muscle: 0.00 ± 0.00 % ID/g
  Biodistribution Pancreas: 0.01 ± 0.00 % ID/g
  Biodistribution Parotid gland: 0.02 ± 0.00 % ID/g
  Biodistribution Spleen: 0.05 ± 0.01 % ID/g
  Biodistribution Stomach: 0.14 ± 0.07 % ID/g
  Biodistribution Submandibular gland: 0.02 ± 0.01 % ID/g
  Biodistribution Tumor: 0.09±0.02 % ID/g

## CCCCCC[C@H](NC(=O)CC[C@H](NC(=O)N[C@@H](CCC(=O)N[C@H](CCCNC(=O)CCC(=O)NCCCC[C@@H](NC(=O)[C@@H](CNC(=O)c1ccc([Si](F)(C(C)(C)C)C(C)(C)C)cc1)NC(=O)CN1CCN(CC(=O)[O-])CCN(CC(=O)[O-])CCN(CC(=O)[O-])CC1)C(=O)O)C(=O)O)C(=O)O)C(=O)O)C(=O)O.[177Lu+3] [[^177Lu]Lu-6, [^177Lu]Lu-Proinhibitor II]
[2]; 24 h p.i.
  Biodistribution Adrenals: 0.04 ± 0.00 % ID/g
  Biodistribution Blood: 0.00 ± 0.00 % ID/g
  Biodistribution Bone: 0.02 ± 0.01 % ID/g
  Biodistribution Heart: 0.03 ± 0.01 % ID/g
  Biodistribution Intestine: 0.18 ± 0.06 % ID/g
  Biodistribution Kidneys: 2.36 ± 0.39 % ID/g
  Biodistribution Liver: 0.14 ± 0.02 % ID/g
  Biodistribution Lung: 0.10 ± 0.08 % ID/g
  Biodistribution Muscle: 0.02 ± 0.00 % ID/g
  Biodistribution Pancreas: 0.03 ± 0.01 % ID/g
  Biodistribution Parotid gland: 0.09 ± 0.03 % ID/g
  Biodistribution Spleen: 0.11 ± 0.03 % ID/g
  Biodistribution Stomach: 0.05 ± 0.01 % ID/g
  Biodistribution Submandibular gland: 0.07 ± 0.01 % ID/g
  Biodistribution Tumor: 0.33±0.11 % ID/g

## CCCCCC[C@H](NC(=O)[C@H](CCC(=O)O)NC(=O)N[C@@H](CCC(=O)N[C@H](CCCNC(=O)CCC(=O)NCCCC[C@@H](NC(=O)[C@@H](CNC(=O)c1ccc([Si](F)(C(C)(C)C)C(C)(C)C)cc1)NC(=O)CN1CCN(CC(=O)[O-])CCN(CC(=O)[O-])CCN(CC(=O)[O-])CC1)C(=O)O)C(=O)O)C(=O)O)C(=O)O.[177Lu+3] [[^177Lu]Lu-7, [^177Lu]Lu-Proinhibitor III]
[2]; 24 h p.i.
  Biodistribution Adrenals: 0.03 ± 0.01 % ID/g
  Biodistribution Blood: 0.01 ± 0.00 % ID/g
  Biodistribution Bone: 0.04 ± 0.01 % ID/g
  Biodistribution Heart: 0.03 ± 0.01 % ID/g
  Biodistribution Intestine: 0.10 ± 0.05 % ID/g
  Biodistribution Kidneys: 2.04 ± 0.75 % ID/g
  Biodistribution Liver: 0.17 ± 0.05 % ID/g
  Biodistribution Lung: 0.04 ± 0.01 % ID/g
  Biodistribution Muscle: 0.01 ± 0.00 % ID/g
  Biodistribution Pancreas: 0.02 ± 0.00 % ID/g
  Biodistribution Parotid gland: 0.06 ± 0.01 % ID/g
  Biodistribution Spleen: 0.08 ± 0.02 % ID/g
  Biodistribution Stomach: 0.04 ± 0.01 % ID/g
  Biodistribution Submandibular gland: 0.05 ± 0.02 % ID/g
  Biodistribution Tumor: 0.14 ± 0.05 % ID/g

## CC(C)(C)[Si](F)(c1ccc(C(=O)NCC(NC(=O)CN2CCN(CC(=O)[O-])CCN(CC(=O)[O-])CCN(CC(=O)[O-])CC2)C(=O)NC(CCCCNC(=O)CCC(=O)NCCCC(NC(=O)CCC(NC(=O)NC(CCC(=O)O)C(=O)O)C(=O)O)C(=O)O)C(=O)O)cc1)C(C)(C)C.[Lu+3] (centres unmarked) [^natLu-1, ^natLu-PSMA-10, reference compound]
PSMA
  IC50: 7.2 ± 3.7 nM

## CCCCC[C@H](NC(=O)N[C@@H](CCC(=O)N[C@H](CCCNC(=O)CCC(=O)NCCCC[C@@H](NC(=O)[C@@H](CNC(=O)c1ccc([Si](F)(C(C)(C)C)C(C)(C)C)cc1)NC(=O)CN1CCN(CC(=O)[O-])CCN(CC(=O)[O-])CCN(CC(=O)[O-])CC1)C(=O)O)C(=O)O)C(=O)O)C(=O)O.[Lu+3] [^natLu-8, ^natLu-2-Aminoheptanoic Acid Derivative 8]
PSMA
  IC50: > 2000 nM

## CC(C)(C)[Si](F)(c1ccc(C(=O)NCC(NC(=O)CN2CCN(CC(=O)[O-])CCN(CC(=O)[O-])CCN(CC(=O)[O-])CC2)C(=O)NC(CCCCNC(=O)CCC(=O)NCCCC(NC(=O)CCC(NC(=O)NC(Cc2ccco2)C(=O)O)C(=O)O)C(=O)O)C(=O)O)cc1)C(C)(C)C.[Lu+3] (centres unmarked) [^natLu-9, ^natLu-Furyl Derivative 9]
PSMA
  IC50: > 440 nM

## CC(C)(C)[Si](F)(c1ccc(C(=O)NCC(NC(=O)CN2CCN(CC(=O)[O-])CCN(CC(=O)[O-])CCN(CC(=O)[O-])CC2)C(=O)NC(CCCCNC(=O)CCC(=O)NCCCC(NC(=O)CCC(NC(=O)NC(CCc2nnn[nH]2)C(=O)O)C(=O)O)C(=O)O)C(=O)O)cc1)C(C)(C)C.[Lu+3] (centres unmarked) [^natLu-11, ^natLu-Tetrazole Derivative 11]
PSMA
  IC50: 16.4 ± 3.8 nM

## SIFA-Asn(AcNH-p-Glc)-PEG-Tyr^3-octreotate
[3]
  log P(ow): 0.96
